This is an account of results in patent US20200172473A1, “DUAL MODULATORS OF FARNESOID X RECEPTOR AND SOLUBLE EPOXIDE HYDROLASE” (JOHANN WOLFGANG GOETHE-UNIVERSITÄT FRANKFURT AM MAIN, priority 2017, published 2020).

Structures are written as SMILES.

One assay deals with T1, human FXR (Homo sapiens, UniProt Q96RI1).
T1 construct: characterized in a full-length (fl) FXR reporter gene assay in HeLa cells; expressed in transfected cells; host or cells: HeLa
T1 sequence (Q96RI1 1-486): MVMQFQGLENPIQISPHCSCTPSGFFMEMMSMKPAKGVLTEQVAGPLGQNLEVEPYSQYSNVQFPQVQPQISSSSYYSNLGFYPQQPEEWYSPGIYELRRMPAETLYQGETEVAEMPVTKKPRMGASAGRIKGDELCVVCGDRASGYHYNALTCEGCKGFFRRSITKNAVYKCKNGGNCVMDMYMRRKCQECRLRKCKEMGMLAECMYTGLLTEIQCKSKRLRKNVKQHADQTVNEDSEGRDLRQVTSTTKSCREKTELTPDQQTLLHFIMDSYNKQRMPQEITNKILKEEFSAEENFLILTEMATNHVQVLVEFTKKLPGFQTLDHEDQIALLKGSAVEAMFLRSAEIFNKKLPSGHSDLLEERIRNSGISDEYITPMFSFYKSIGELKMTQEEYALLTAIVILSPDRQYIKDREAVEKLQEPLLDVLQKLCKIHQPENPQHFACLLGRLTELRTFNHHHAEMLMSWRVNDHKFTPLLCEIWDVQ
T1 sequence (P19793 1-462 partner): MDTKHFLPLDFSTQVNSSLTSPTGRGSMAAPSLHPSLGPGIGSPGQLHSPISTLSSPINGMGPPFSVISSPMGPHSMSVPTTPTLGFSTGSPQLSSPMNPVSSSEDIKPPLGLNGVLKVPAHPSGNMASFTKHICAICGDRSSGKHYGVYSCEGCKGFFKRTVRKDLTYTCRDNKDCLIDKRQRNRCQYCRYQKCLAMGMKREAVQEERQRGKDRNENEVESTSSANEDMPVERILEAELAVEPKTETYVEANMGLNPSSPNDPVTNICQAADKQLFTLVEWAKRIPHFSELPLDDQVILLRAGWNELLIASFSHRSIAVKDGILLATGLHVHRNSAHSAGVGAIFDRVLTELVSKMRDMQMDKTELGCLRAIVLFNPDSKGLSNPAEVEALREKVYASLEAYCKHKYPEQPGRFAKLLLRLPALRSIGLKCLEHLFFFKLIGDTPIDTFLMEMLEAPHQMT
As to the kind of experiment: full-length FXR reporter gene (transactivation) assay in HeLa cells. Type of assay: cell-based. The settings on record: 50 μM; relative to GW4064 (1c) at 3 μM = 100%. The text has this:
This assay is based on a reporter construct containing a firefly luciferase under the control of the FXR response element from bile salt export protein (BSEP). FXR and its hetero dimer partner retinoid X receptor (RXR) as expression constructs under the control of a CMV promoter as well as a constitutively expressed renilla luciferase (SV40 promoter) for normalization and toxicity control were co-transfected. […] The sEH inhibitory potency of the test compounds was quantified in a fluorescence-based assay using recombinant enzyme and the fluorogenic sEH substrate PHOME^37 that is hydrolyzed to a fluorescent 6-methoxynaphtaldehyde by sEH.
Plasmids: pcDNA3-hFXR contains the sequence of human FXR and was already published elsewhere.^47 pGL3 basic (Promega Corporation, Fitchburg, Wis., USA) was used as a reporter plasmid, with a shortened construct of the promotor of the bile salt export protein (BSEP) cloned into the SacI/NheI cleavage site in front of the luciferase gene.^48 pRL-V40 (Promega) was transfected as a control for normalization of transfection efficiency and cell growth. pSG5-hRXR was already published elsewhere as well.^49
Assay procedure: HeLa cells were grown in DMEM high glucose supplemented with 10% FCS, sodium pyruvate (1 mM), penicillin (100 U/mL) and streptomycin (100 μg/mL) at 37° C. and 5% CO2. […] Transient transfection of HeLa cells with BSEP-pGL3, pRL-SV40 and the expression plasmids pcDNA3-hFXR and pSG5-hRXR was carried out using calcium phosphate transfection method. […] Each concentration was tested in triplicate wells and each experiment was repeated independently at least three times. […] Luminescence was measured with a Tecan Infinite M200 luminometer (Tecan Deutschland GmbH, Crailsheim, Germany). Normalization of transfection efficiency and cell growth was done by division of firefly luciferase data by renilla luciferase data multiplied by 1000 resulting in relative light units (RLU). Fold activation was obtained by dividing the mean RLU of the tested compound at a respective concentration by the mean RLU of untreated control. […] EC50 and standard error of the mean values were calculated with the mean relative activation values of at least three independent experiments by SigmaPlot 10.0 (Systat Software GmbH, Erkrath, Germany) using a four parameter logistic regression.
(In general: Reporter assays use an easily measured gene product as a stand-in for the process of interest.)
Take `O=C(O)c1ccc(CNC(=O)c2ccc(Cl)c(Cl)c2)cc1` [compound 14]: the “FXR % activation at indicated conc.” value is “inactive (50 μM)”.
Same read-out and setting: the value for `Cc1cc(C(=O)O)ccc1CNC(=O)c1ccc(C(C)(C)C)cc1` [compound 29] was “inactive (50 μM)”.
On the same count and under the same terms, the value for `CC(C)(C)c1ccc(C(=O)NCc2ccc(CO)cc2)cc1` [compound 33] was “inactive (50 μM)”; that for `CC(C)(C)c1ccc(C(=O)NCc2ccc(C#N)cc2)cc1` [compound 36] was “inactive (50 μM)”.
For the compound `CC(C)(C)c1ccc(C(=O)NCc2ccc(N)cc2)cc1` [compound 42], the “FXR % activation at indicated conc.” value is “inactive (50 μM)”.
The same measure, in the same setting: the value for `CC(=O)NS(=O)(=O)c1ccc(CNC(=O)c2ccc(C(C)(C)C)cc2)cc1` [compound 45] was “inactive (50 μM)”.

The same assay, now with this note: HeLa; read-out: FXR activation max. rel. activation (converted).
In the case of `O=C(O)c1ccc(CNC(=O)c2cccc(-c3ccccc3)c2)cc1` [compound 12], the Emax is 14%.
On the same count and under the same terms, the value for `O=C(O)c1ccc(CNC(=O)c2ccc(-c3ccccc3)cc2)cc1` [compound 13] was 24%.
Still for that read-out and setting: to `CC(C)(C)c1ccc(C(=O)NCc2ccc(C(=O)O)cc2)cc1` [compound 18] belongs 13%.
Regarding `COc1cc(C(=O)NCc2ccc(C(=O)O)cc2)ccc1C(C)(C)C` [compound 20], the Emax was 23%.
Still for that read-out and setting: the value for `CC(C)(C)c1ccc(NC(=O)Nc2ccc(C(=O)O)cc2)cc1` [compound 21] was 14%; that for `CC(C)(C)c1ccc(C(=O)NCc2ccc(CC(=O)O)cc2)cc1` [compound 23] was 19%; that for `CC(C)(C)c1ccc(C(=O)NCc2ccc(CCC(=O)O)cc2)cc1` [compound 24] was 16%.
Same read-out and setting: to `CC(C)(C)c1ccc(C(=O)NCc2ccc(OCC(=O)O)cc2)cc1` [compound 25] belongs 21%; to `CC(C)(C)c1ccc(C(=O)NCc2ccc(C(=O)O)c(F)c2)cc1` [compound 27], 28%; to `CC(C)(C)c1ccc(C(=O)NCc2ccc(C(=O)O)cc2F)cc1` [compound 30], 26%.
For `CC(C)(C)c1ccc(C(=O)NCc2ccc(C(=O)O)cc2Cl)cc1` [compound 31], the Emax is 25%.
As for `CC(C)(C)c1ccc(C(=O)NCc2ccc(C=O)cc2)cc1` [compound 34], the Emax was 22%.
The same measure, in the same setting: the value for `CC(=O)c1ccc(CNC(=O)c2ccc(C(C)(C)C)cc2)cc1` [compound 35] was 29%; that for `CC(C)(C)c1ccc(C(=O)NCc2ccc(C(N)=O)cc2)cc1` [compound 37] was 27%.
Same read-out and setting: to `CNC(=O)c1ccc(CNC(=O)c2ccc(C(C)(C)C)cc2)cc1` [compound 38] belongs 29%; to `CN(C)C(=O)c1ccc(CNC(=O)c2ccc(C(C)(C)C)cc2)cc1` [compound 39], 17 ± 100%.
The same measure, in the same setting: the value for `CC(=O)Nc1ccc(CNC(=O)c2ccc(C(C)(C)C)cc2)cc1` [compound 40] was 31%; that for `CC(C)(C)c1ccc(C(=O)NCc2ccc(NC(=O)C(F)(F)F)cc2)cc1` [compound 41] was 20%.
With `CC(C)(C)c1ccc(C(=O)NCc2ccc(-c3nnn[nH]3)cc2)cc1` [compound 43], the Emax is 23%.
Same read-out and setting: to `CC(C)(C)c1ccc(C(=O)NCc2ccc(S(N)(=O)=O)cc2)cc1` [compound 44] belongs 16%.
For `CC(C)(C)c1ccc(C(=O)NCc2ccc(NS(C)(=O)=O)cc2)cc1` [compound 46], the Emax is 22%.
The same measure, in the same setting: the value for `COc1ccc(CNC(=O)c2ccc(C(C)(C)C)cc2)cc1` [compound 47] was 19%.
With `CCOc1ccc(CNC(=O)c2ccc(C(C)(C)C)cc2)cc1` [compound 48], the Emax was 31%.
On the same count and under the same terms, to `CC(C)Oc1ccc(CNC(=O)c2ccc(C(C)(C)C)cc2)cc1` [compound 49] belongs 26%.
As to `CC(C)(C)c1ccc(C(=O)NCc2ccc(OC(F)(F)F)cc2)cc1` [compound 50], the Emax is 26%.
In the case of `C[S+]([O-])c1ccc(CNC(=O)c2ccc(C(C)(C)C)cc2)cc1` (centres unmarked) [compound 52], the Emax is 24%.
